{"source": "PubChem BioAssay (NCI)", "assay_in_all_cases": "DTP human tumour cell line panel, 384-well format", "key": {"[1]": {"tested_on": "A498 renal"}, "[2]": {"tested_on": "A549 NSCLC"}, "[3]": {"tested_on": "ACHN renal"}, "[4]": {"tested_on": "BT-549 breast"}, "[5]": {"tested_on": "CAKI-1 renal"}, "[6]": {"tested_on": "COLO 205 colon"}, "[7]": {"tested_on": "DU-145 prostate"}, "[8]": {"tested_on": "EKVX NSCLC"}, "[9]": {"tested_on": "HCC-2998 colon"}, "[10]": {"tested_on": "HCT-116 colon"}, "[11]": {"tested_on": "HCT-15 colon"}, "[12]": {"tested_on": "HL-60(TB) leukemia"}, "[13]": {"tested_on": "HOP-62 NSCLC"}, "[14]": {"tested_on": "HOP-92 NSCLC"}, "[15]": {"tested_on": "HS 578T breast"}, "[16]": {"tested_on": "HT29 colon"}, "[17]": {"tested_on": "IGROV1 ovarian"}, "[18]": {"tested_on": "KM12 colon"}, "[19]": {"tested_on": "LOX IMVI melanoma"}, "[20]": {"tested_on": "M14 melanoma"}, "[21]": {"tested_on": "MALME-3M melanoma"}, "[22]": {"tested_on": "MCF7 breast"}, "[23]": {"tested_on": "MDA-MB-231 breast"}, "[24]": {"tested_on": "MDA-MB-435 melanoma"}, "[25]": {"tested_on": "MDA-MB-468 breast"}, "[26]": {"tested_on": "MOLT-4 leukemia"}, "[27]": {"tested_on": "NCI-H226 lung"}, "[28]": {"tested_on": "NCI-H23 lung"}, "[29]": {"tested_on": "NCI-H322M lung"}, "[30]": {"tested_on": "NCI-H460 NSCLC"}, "[31]": {"tested_on": "NCI-H522 lung"}, "[32]": {"tested_on": "NCI/ADR-RES ovarian"}, "[33]": {"tested_on": "OVCAR-3 ovarian"}, "[34]": {"tested_on": "OVCAR-4 ovarian"}, "[35]": {"tested_on": "OVCAR-5 ovarian"}, "[36]": {"tested_on": "OVCAR-8 ovarian"}, "[37]": {"tested_on": "PC-3 prostate"}, "[38]": {"tested_on": "RXF 393 renal"}, "[39]": {"tested_on": "SF-268 CNS"}, "[40]": {"tested_on": "SF-295 CNS"}, "[41]": {"tested_on": "SF-539 CNS"}, "[42]": {"tested_on": "SK-MEL-28 melanoma"}, "[43]": {"tested_on": "SK-MEL-5 melanoma"}, "[44]": {"tested_on": "SK-OV-3 ovarian"}, "[45]": {"tested_on": "SN12C renal"}, "[46]": {"tested_on": "SNB-19 CNS"}, "[47]": {"tested_on": "SNB-75 CNS"}, "[48]": {"tested_on": "SR leukemia"}, "[49]": {"tested_on": "T-47D breast"}, "[50]": {"tested_on": "TK-10 renal"}, "[51]": {"tested_on": "U251 glioblastoma"}, "[52]": {"tested_on": "UACC-257 melanoma"}, "[53]": {"tested_on": "UACC-62 melanoma"}}, "note": "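Here, GI50 denotes the concentration required for 50% inhibition of growth. At the TGI there is no net growth.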", "data": [{"compound": "O=C(NO)c1cnc(N2CCN(S(=O)(=O)c3ccc4ccccc4c3)CC2)nc1", "values": [{"measurement": "GI50", "setting": "[1]", "result": 69.7, "unit": "nM"}, {"measurement": "TGI", "setting": "[1]", "result": 205, "unit": "nM"}, {"measurement": "GI50", "setting": "[2]", "result": 69.2, "unit": "nM"}, {"measurement": "TGI", "setting": "[2]", "result": 229, "unit": "nM"}, {"measurement": "GI50", "setting": "[3]", "result": 139, "unit": "nM"}, {"measurement": "TGI", "setting": "[3]", "result": 294, "unit": "nM"}, {"measurement": "GI50", "setting": "[4]", "result": 128, "unit": "nM"}, {"measurement": "TGI", "setting": "[4]", "result": 319, "unit": "nM"}, {"measurement": "GI50", "setting": "[5]", "result": 94.7, "unit": "nM"}, {"measurement": "TGI", "setting": "[5]", "result": 222, "unit": "nM"}, {"measurement": "GI50", "setting": "[6]", "result": 129, "unit": "nM"}, {"measurement": "TGI", "setting": "[6]", "result": 263, "unit": "nM"}, {"measurement": "GI50", "setting": "[7]", "result": 29.4, "unit": "nM"}, {"measurement": "TGI", "setting": "[7]", "result": 95, "unit": "nM"}, {"measurement": "GI50", "setting": "[8]", "result": 200, "unit": "nM"}, {"measurement": "TGI", "setting": "[8]", "result": 911, "unit": "nM"}, {"measurement": "GI50", "setting": "[9]", "result": 52.5, "unit": "nM"}, {"measurement": "TGI", "setting": "[9]", "result": 188, "unit": "nM"}, {"measurement": "GI50", "setting": "[10]", "result": 32, "unit": "nM"}, {"measurement": "TGI", "setting": "[10]", "result": 120, "unit": "nM"}, {"measurement": "GI50", "setting": "[11]", "result": 98.2, "unit": "nM"}, {"measurement": "TGI", "setting": "[11]", "result": 272, "unit": "nM"}, {"measurement": "GI50", "setting": "[12]", "result": 15, "unit": "nM"}, {"measurement": "TGI", "setting": "[12]", "result": 28.7, "unit": "nM"}, {"measurement": "GI50", "setting": "[13]", "result": 69, "unit": "nM"}, {"measurement": "TGI", "setting": "[13]", "result": 263, "unit": "nM"}, {"measurement": "GI50", "setting": "[14]", "result": 102, "unit": "nM"}, {"measurement": "TGI", "setting": "[14]", "result": 310, "unit": "nM"}, {"measurement": "GI50", "setting": "[15]", "result": 86, "unit": "nM"}, {"measurement": "TGI", "setting": "[15]", "result": 219, "unit": "nM"}, {"measurement": "GI50", "setting": "[16]", "result": 61.1, "unit": "nM"}, {"measurement": "TGI", "setting": "[16]", "result": 197, "unit": "nM"}, {"measurement": "GI50", "setting": "[17]", "result": 65.8, "unit": "nM"}, {"measurement": "TGI", "setting": "[17]", "result": 195, "unit": "nM"}, {"measurement": "GI50", "setting": "[18]", "result": 113, "unit": "nM"}, {"measurement": "TGI", "setting": "[18]", "result": 467, "unit": "nM"}, {"measurement": "GI50", "setting": "[19]", "result": 47.2, "unit": "nM"}, {"measurement": "TGI", "setting": "[19]", "result": 157, "unit": "nM"}, {"measurement": "GI50", "setting": "[20]", "result": 49.9, "unit": "nM"}, {"measurement": "TGI", "setting": "[20]", "result": 171, "unit": "nM"}, {"measurement": "GI50", "setting": "[21]", "result": 25.8, "unit": "nM"}, {"measurement": "TGI", "setting": "[21]", "result": 124, "unit": "nM"}, {"measurement": "GI50", "setting": "[22]", "result": 44.6, "unit": "nM"}, {"measurement": "TGI", "setting": "[22]", "result": 205, "unit": "nM"}, {"measurement": "GI50", "setting": "[23]", "result": 129, "unit": "nM"}, {"measurement": "TGI", "setting": "[23]", "result": 343, "unit": "nM"}, {"measurement": "GI50", "setting": "[24]", "result": 125, "unit": "nM"}, {"measurement": "TGI", "setting": "[24]", "result": 283, "unit": "nM"}, {"measurement": "GI50", "setting": "[25]", "result": 68.4, "unit": "nM"}, {"measurement": "TGI", "setting": "[25]", "result": 384, "unit": "nM"}, {"measurement": "GI50", "setting": "[26]", "result": 18.1, "unit": "nM"}, {"measurement": "TGI", "setting": "[26]", "result": 32.4, "unit": "nM"}, {"measurement": "GI50", "setting": "[27]", "result": 136, "unit": "nM"}, {"measurement": "TGI", "setting": "[27]", "result": 288, "unit": "nM"}, {"measurement": "GI50", "setting": "[28]", "result": 93.4, "unit": "nM"}, {"measurement": "TGI", "setting": "[28]", "result": 334, "unit": "nM"}, {"measurement": "GI50", "setting": "[29]", "result": 79.2, "unit": "nM"}, {"measurement": "TGI", "setting": "[29]", "result": 261, "unit": "nM"}, {"measurement": "GI50", "setting": "[30]", "result": 30.8, "unit": "nM"}, {"measurement": "TGI", "setting": "[30]", "result": 138, "unit": "nM"}, {"measurement": "GI50", "setting": "[31]", "result": 40.7, "unit": "nM"}, {"measurement": "TGI", "setting": "[31]", "result": 163, "unit": "nM"}, {"measurement": "GI50", "setting": "[32]", "result": 15.5, "unit": "nM"}, {"measurement": "TGI", "setting": "[32]", "result": 42.3, "unit": "nM"}, {"measurement": "GI50", "setting": "[33]", "result": 89.6, "unit": "nM"}, {"measurement": "TGI", "setting": "[33]", "result": 216, "unit": "nM"}, {"measurement": "GI50", "setting": "[34]", "result": 140, "unit": "nM"}, {"measurement": "TGI", "setting": "[34]", "result": 327, "unit": "nM"}, {"measurement": "GI50", "setting": "[35]", "result": 37, "unit": "nM"}, {"measurement": "TGI", "setting": "[35]", "result": 137, "unit": "nM"}, {"measurement": "GI50", "setting": "[36]", "result": 19.2, "unit": "nM"}, {"measurement": "TGI", "setting": "[36]", "result": 140, "unit": "nM"}, {"measurement": "GI50", "setting": "[37]", "result": 56.7, "unit": "nM"}, {"measurement": "TGI", "setting": "[37]", "result": 239, "unit": "nM"}, {"measurement": "GI50", "setting": "[38]", "result": 121, "unit": "nM"}, {"measurement": "TGI", "setting": "[38]", "result": 263, "unit": "nM"}, {"measurement": "GI50", "setting": "[39]", "result": 102, "unit": "nM"}, {"measurement": "TGI", "setting": "[39]", "result": 246, "unit": "nM"}, {"measurement": "GI50", "setting": "[40]", "result": 119, "unit": "nM"}, {"measurement": "TGI", "setting": "[40]", "result": 249, "unit": "nM"}, {"measurement": "GI50", "setting": "[41]", "result": 82.4, "unit": "nM"}, {"measurement": "TGI", "setting": "[41]", "result": 409, "unit": "nM"}, {"measurement": "GI50", "setting": "[42]", "result": 39.6, "unit": "nM"}, {"measurement": "TGI", "setting": "[42]", "result": 146, "unit": "nM"}, {"measurement": "GI50", "setting": "[43]", "result": 29.8, "unit": "nM"}, {"measurement": "TGI", "setting": "[43]", "result": 61.2, "unit": "nM"}, {"measurement": "GI50", "setting": "[44]", "result": 85.4, "unit": "nM"}, {"measurement": "TGI", "setting": "[44]", "result": 237, "unit": "nM"}, {"measurement": "GI50", "setting": "[45]", "result": 109, "unit": "nM"}, {"measurement": "TGI", "setting": "[45]", "result": 233, "unit": "nM"}, {"measurement": "GI50", "setting": "[46]", "result": 154, "unit": "nM"}, {"measurement": "TGI", "setting": "[46]", "result": 299, "unit": "nM"}, {"measurement": "GI50", "setting": "[47]", "result": 166, "unit": "nM"}, {"measurement": "TGI", "setting": "[47]", "result": 1260, "unit": "nM"}, {"measurement": "GI50", "setting": "[48]", "result": 13.5, "unit": "nM"}, {"measurement": "TGI", "setting": "[48]", "result": 42.4, "unit": "nM"}, {"measurement": "GI50", "setting": "[49]", "result": 38.9, "unit": "nM"}, {"measurement": "TGI", "setting": "[49]", "result": 168, "unit": "nM"}, {"measurement": "GI50", "setting": "[50]", "result": 64, "unit": "nM"}, {"measurement": "TGI", "setting": "[50]", "result": 229, "unit": "nM"}, {"measurement": "GI50", "setting": "[51]", "result": 50.4, "unit": "nM"}, {"measurement": "TGI", "setting": "[51]", "result": 170, "unit": "nM"}, {"measurement": "GI50", "setting": "[52]", "result": 23.8, "unit": "nM"}, {"measurement": "TGI", "setting": "[52]", "result": 85.3, "unit": "nM"}, {"measurement": "GI50", "setting": "[53]", "result": 41.7, "unit": "nM"}, {"measurement": "TGI", "setting": "[53]", "result": 154, "unit": "nM"}]}]}
